Some test systems named below: DU-145 prostate; K-562 leukemia; MDA-MB-231 breast; MDA-MB-435; SK-OV-3 ovarian; U251 CNS; MALME-3M melanoma; SN12C renal; UACC-62 melanoma; NCI/ADR-RES ovarian.
What all share (assay): NCI anticancer screen, dose series, 48 h

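Step 1: Grow cells in 96-well plates. Step 2: Expose to compound for 48 hours at 5 concentrations. Step 3: Interpolate endpoints linearly; if unreached, use highest concentration. At the GI50, growth is halved. TGI is the concentration that stops growth completely.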

Take `O=C1C=CC(=O)c2c1ccc1c3ccccc3n(-c3cccc([N+](=O)[O-])c3)c21`: the TGI with DU-145 prostate is above 10 µM; in the assay with K-562 leukemia it was 1.45 µM; with MDA-MB-231 breast, 5.81 µM; in the assay on MDA-MB-435 it was 4.37 µM; in the assay on SK-OV-3 ovarian, above 10 µM; in the assay on U251 CNS, above 10 µM. Further, the TGI is 4 µM in the assay with MALME-3M melanoma, above 10 µM in the assay on SN12C renal, above 3.16 µM in the assay with UACC-62 melanoma and above 10 µM in the assay with NCI/ADR-RES ovarian.

`COc1cc(OC)c(/C=C/c2c3ccccc3cc[n+]2C)c(OC)c1`: the GI50 is 2.96 µM with DU-145 prostate; 863 nM in the assay with K-562 leukemia; 3.46 µM in the assay with MDA-MB-231 breast; 781 nM in the assay with MDA-MB-435; 3.58 µM in the assay on SK-OV-3 ovarian; 1.1 µM with U251 CNS. Further, the GI50 was 2.32 µM in the assay on MALME-3M melanoma, 2.31 µM in the assay with SN12C renal, 1.51 µM in the assay with UACC-62 melanoma and above 85.5 µM with NCI/ADR-RES ovarian. Also, the TGI with DU-145 prostate is 48.8 µM; in the assay on K-562 leukemia, above 100 µM; with MDA-MB-231 breast it was 31.4 µM; in the assay on MDA-MB-435, 10.1 µM; with SK-OV-3 ovarian, above 100 µM; in the assay on U251 CNS it was 14.1 µM. For the same compound, the TGI is 15.4 µM in the assay with MALME-3M melanoma, 18.6 µM with SN12C renal, 9.58 µM in the assay with UACC-62 melanoma and above 100 µM in the assay with NCI/ADR-RES ovarian.

For `Cn1cc(C2=C(c3cccc(Br)c3)C(=O)NC2=O)c2ccccc21`, the GI50 in the assay on DU-145 prostate is above 25 µM; in the assay on K-562 leukemia, 8650 nM; with MDA-MB-231 breast, 18.7 µM; with MDA-MB-435, 5820 nM; in the assay with SK-OV-3 ovarian, 10.3 µM; with U251 CNS, 12.3 µM. Moreover, the GI50 was above 19.2 µM with MALME-3M melanoma, 13.2 µM with SN12C renal, 11.3 µM with UACC-62 melanoma and 8.85 µM in the assay on NCI/ADR-RES ovarian. In addition, the TGI with DU-145 prostate, in the assay on K-562 leukemia, in the assay with MDA-MB-231 breast, with MDA-MB-435, with SK-OV-3 ovarian and in the assay on U251 CNS was above 25 µM in each case. In addition, the TGI in the assay with MALME-3M melanoma, in the assay on SN12C renal, in the assay with UACC-62 melanoma and with NCI/ADR-RES ovarian was above 25 µM throughout.

With `C#COc1cccc(Nc2c(C#N)cnc3ncc(NC(=O)CCl)cc23)c1`, the GI50 was 42.1 µM in the assay on DU-145 prostate; 25900 nM with K-562 leukemia; 32 µM with MDA-MB-231 breast; above 62500 nM in the assay on MDA-MB-435; above 62.5 µM in the assay on SK-OV-3 ovarian; 12.5 µM with U251 CNS. Besides, the GI50 in the assay with MALME-3M melanoma was 55.4 µM; in the assay on SN12C renal, 16.2 µM; in the assay on UACC-62 melanoma it was 35.7 µM; in the assay with NCI/ADR-RES ovarian it was above 62.5 µM. In addition, the TGI was above 62.5 µM with DU-145 prostate; above 62.5 µM in the assay on K-562 leukemia; above 62.5 µM with MDA-MB-231 breast; above 62.5 µM in the assay on MDA-MB-435; above 62.5 µM in the assay with SK-OV-3 ovarian; 53.6 µM in the assay on U251 CNS. Besides, the TGI with MALME-3M melanoma, in the assay with SN12C renal, in the assay with UACC-62 melanoma and with NCI/ADR-RES ovarian was above 62.5 µM in each case.

For `CC1(C)CC(=O)C(C=NC(=O)c2ccncc2)=C(O)C1`, the TGI with DU-145 prostate, in the assay on MDA-MB-231 breast, with MDA-MB-435, with SK-OV-3 ovarian, in the assay on U251 CNS and in the assay with SN12C renal was above 100 µM in each case. In addition, the TGI in the assay with UACC-62 melanoma and in the assay with NCI/ADR-RES ovarian was above 100 µM each time.

With `Cc1nc(-[n+]2nc(-c3ccncc3)nn2-c2ccccc2)sc1C`, the TGI in the assay with DU-145 prostate was above 100 µM; in the assay with K-562 leukemia it was above 100 µM; with MDA-MB-231 breast it was above 100 µM; in the assay with MDA-MB-435 it was above 100 µM; in the assay on SK-OV-3 ovarian, 67.5 µM; with U251 CNS, above 100 µM. Also, the TGI with MALME-3M melanoma, with SN12C renal, with UACC-62 melanoma and in the assay on NCI/ADR-RES ovarian was above 100 µM throughout.

For `CCN1C(=O)N(CC)C2C1NN=c1s/c(=C3\C(=O)N(CC(C)(C)C)c4ccccc43)c(=O)n12` (stereo not drawn), the GI50 was 3.79 µM in the assay with DU-145 prostate; 1650 nM with K-562 leukemia; 0.151 µM with MDA-MB-231 breast; 1540 nM with MDA-MB-435; 10.7 µM in the assay with SK-OV-3 ovarian; 4.13 µM with U251 CNS. Besides, the GI50 is 10 µM in the assay with MALME-3M melanoma, 2.21 µM in the assay on SN12C renal, 3.06 µM with UACC-62 melanoma and 2.61 µM with NCI/ADR-RES ovarian. Besides, the TGI was 18.6 µM in the assay with DU-145 prostate; 20.9 µM in the assay on K-562 leukemia; 2.29 µM in the assay on MDA-MB-231 breast; 7.1 µM in the assay on MDA-MB-435; 74.6 µM with SK-OV-3 ovarian; 20.6 µM in the assay with U251 CNS. Besides, the TGI in the assay on MALME-3M melanoma is 25.5 µM; with SN12C renal, 11.3 µM; with UACC-62 melanoma, 15.8 µM; with NCI/ADR-RES ovarian, 13.3 µM.

As for `CCOC(=O)/C=C(/C)Sc1cc(O)c2ccccc2c1O`, the GI50 is 1.86 µM in the assay on DU-145 prostate; 2480 nM in the assay with K-562 leukemia; 2.67 µM in the assay on MDA-MB-231 breast; 1750 nM with MDA-MB-435; 13.8 µM with SK-OV-3 ovarian; 4.31 µM with U251 CNS. Besides, the GI50 in the assay with MALME-3M melanoma was 1.93 µM; with SN12C renal, 2.48 µM; in the assay on UACC-62 melanoma, 3.67 µM; with NCI/ADR-RES ovarian it was 3.99 µM. The TGI in the assay on DU-145 prostate is 3.44 µM; in the assay with K-562 leukemia it was 6.68 µM; with MDA-MB-231 breast, 15.3 µM; with MDA-MB-435 it was 3.28 µM; in the assay on SK-OV-3 ovarian, 44.5 µM; with U251 CNS it was 24 µM. For the same compound, the TGI amounted to 3.71 µM in the assay with MALME-3M melanoma, 7.29 µM in the assay with SN12C renal, 14 µM in the assay with UACC-62 melanoma and 25.2 µM in the assay with NCI/ADR-RES ovarian.

As to `CCN(Cc1ccccc1C)c1ccc(CO)c(Cl)c1`, the GI50 in the assay on DU-145 prostate was 16.5 µM; in the assay with K-562 leukemia it was 3100 nM; with MDA-MB-231 breast, 13.7 µM; in the assay on MDA-MB-435, 3670 nM; in the assay with SK-OV-3 ovarian, 13.7 µM; with U251 CNS it was 2.84 µM. The GI50 with MALME-3M melanoma is 15.6 µM; with SN12C renal, 12.5 µM; with UACC-62 melanoma, 0.423 µM; in the assay with NCI/ADR-RES ovarian, 14.5 µM. Besides, the TGI came to 35.4 µM in the assay on DU-145 prostate; 13.8 µM with K-562 leukemia; 32 µM in the assay on MDA-MB-231 breast; 15.4 µM in the assay with MDA-MB-435; 31.5 µM with SK-OV-3 ovarian; 17.1 µM in the assay on U251 CNS. Also, the TGI was determined as 32 µM in the assay with MALME-3M melanoma, 25.9 µM with SN12C renal, 6.27 µM in the assay on UACC-62 melanoma and 43.8 µM in the assay on NCI/ADR-RES ovarian.

For the origin of these results see PubChem BioAssay (NCI).
